Measured values taken from patent US9328099B2, “Cyanomethylpyrazole carboxamides as janus kinase inhibitors” (Merck Sharp & Dohme Corp., priority 2011, dated 2016).
Like-named read-outs stand apart in the source and are kept apart here.

What was measured:
JAK1 = JAK1 (Homo sapiens (Human), UniProt P23458); assay: Jak Biochemical HTRF Assay, JAK1; conditions: read-out: JAK1 IC50
Excerpt: (§1) Jak Biochemical HTRF Assay Protocol
(§2) Subsequent reagent additions employed an Agilent Bravo.

JAK2 = JAK2 (Homo sapiens (Human), UniProt O60674); assay: Jak Biochemical HTRF Assay, JAK2
Excerpt: as §1, §2

[1] = HTRF biochemical assay, GST-tagged catalytic domain, top concentration tested […]

JAK1, sequence (P23458 875-1153): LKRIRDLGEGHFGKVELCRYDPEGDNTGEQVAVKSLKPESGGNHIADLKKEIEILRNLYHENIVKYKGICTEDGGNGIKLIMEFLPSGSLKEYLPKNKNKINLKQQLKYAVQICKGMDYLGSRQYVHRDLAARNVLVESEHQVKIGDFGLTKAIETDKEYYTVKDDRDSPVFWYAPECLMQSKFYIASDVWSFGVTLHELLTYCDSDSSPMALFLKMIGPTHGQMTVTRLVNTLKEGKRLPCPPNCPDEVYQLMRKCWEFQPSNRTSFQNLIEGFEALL
JAK2, sequence (O60674 849-1124): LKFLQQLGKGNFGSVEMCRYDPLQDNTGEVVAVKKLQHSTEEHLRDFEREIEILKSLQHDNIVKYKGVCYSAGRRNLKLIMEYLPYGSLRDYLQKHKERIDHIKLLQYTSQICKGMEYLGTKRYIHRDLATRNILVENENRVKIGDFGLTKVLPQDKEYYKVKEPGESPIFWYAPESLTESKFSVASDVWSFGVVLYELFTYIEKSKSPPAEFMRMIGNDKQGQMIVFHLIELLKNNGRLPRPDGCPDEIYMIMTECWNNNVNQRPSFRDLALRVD

Row | SMILES | IC50 (JAK1; [1]) [nM] | IC50 (JAK2; [1]) [nM] | IC50 (JAK1) [nM] | IC50 (JAK2) [nM]
1 | N#CCC1(n2cc(C(N)=O)c(Nc3ccnc(F)c3)n2)CCC(NCc2ccc(C#N)cc2)CC1 (stereo not drawn) [Example 41-6, Cis or trans 1-{4-[(4-cyanobenzyl)amino]-1-(cyanomethyl)cyclohexyl}-3-[(2-fluoropyridin-4-yl)amino]-1H-pyrazole-4-carboxamide] | 23 | 851 | – | –
2 | N#CCC1(n2cc(C(N)=O)c(Nc3ccnc(F)c3)n2)CCC(NCc2ccncc2)CC1 (stereo not drawn) [Example 41-13, Cis or trans 1-{1-(cyanomethyl)-4-[(pyridin-4-ylmethyl)amino]cyclohexyl}-3-[(2-fluoropyridin-4-yl)amino]-1H-pyrazole-4-carboxamide] | 86 | 1000 | – | –
3 | N#CCC1(n2cc(C(N)=O)c(Nc3ccnc(F)c3)n2)CCC(NCc2cccc(C#N)c2)CC1 (stereo not drawn) [Example 41-14, Cis or trans 1-{4-[(3-cyanobenzyl)amino]-1-(cyanomethyl)cyclohexyl}-3-[(2-fluoropyridin-4-yl)amino]-1H-pyrazole-4-carboxamide] | 45 | 1420 | – | –
4 | N#CCC1(n2cc(C(N)=O)c(Nc3ccnc(F)c3)n2)CCC(NCc2ccccc2Cl)CC1 (stereo not drawn) [Example 41-16, Cis or trans 1-{4-[(2-chlorobenzyl)amino]-1-(cyanomethyl)cyclohexyl}-3-[(2-fluoropyridin-4-yl)amino]-1H-pyrazole-4-carboxamide] | 24 | 912 | – | –
5 | N#CCC1(n2cc(C(N)=O)c(Nc3ccnc(F)c3)n2)CCC(NCc2ccccn2)CC1 (stereo not drawn) [Example 41-17, Cis or trans 1-{1-(cyanomethyl)-4-[(pyridin-2-ylmethyl)amino]cyclohexyl}-3-[(2-fluoropyridin-4-yl)amino]-1H-pyrazole-4-carboxamide] | 46 | 1390 | – | –
6 | N#CCC1(n2cc(C(N)=O)c(Nc3ccnc(F)c3)n2)CCC(NCc2cccnc2)CC1 (stereo not drawn) [Example 41-22, Cis or trans 1-{1-(cyanomethyl)-4-[(pyridin-3-ylmethyl)amino]cyclohexyl}-3-[(2-fluoropyridin-4-yl)amino]-1H-pyrazole-4-carboxamide] | 28 | 1050 | – | –
7 | N#CCC1(n2cc(C(N)=O)c(Nc3ccnc(F)c3)n2)CCC(NCc2cccc(Cl)c2)CC1 (stereo not drawn) [Example 41-23, Cis or trans 1-{4-[(3-chlorobenzyl)amino]-1-(cyanomethyl)cyclohexyl}-3-[(2-fluoropyridin-4-yl)amino]-1H-pyrazole-4-carboxamide] | 46 | 1430 | – | –
8 | N#CCC1(n2cc(C(N)=O)c(Nc3ccnc(F)c3)n2)CCC(NCc2cccc(F)c2)CC1 (stereo not drawn) [Example 41-24, Cis or trans 1-{1-(cyanomethyl)-4-[(3-fluorobenzyl)amino]cyclohexyl}-3-[(2-fluoropyridin-4-yl)amino]-1H-pyrazole-4-carboxamide] | 26 | 1030 | – | –
9 | N#CCC1(n2cc(C(N)=O)c(Nc3ccnc(F)c3)n2)CCC(NCc2ccc(F)cc2)CC1 (stereo not drawn) [Example 41-25, Cis or trans 1-{1-(cyanomethyl)-4-[(4-fluorobenzyl)amino]cyclohexyl}-3-[(2-fluoropyridin-4-yl)amino]-1H-pyrazole-4-carboxamide] | 27 | 1080 | – | –
10 | N#CCC1(n2cc(C(N)=O)c(Nc3ccnc(F)c3)n2)CCC(NCc2ccc(O)cc2)CC1 (stereo not drawn) [Example 41-26, Cis or trans 1-{1-(cyanomethyl)-4-[(4-hydroxybenzyl)amino]cyclohexyl}-3-[(2-fluoropyridin-4-yl)amino]-1H-pyrazole-4-carboxamide] | 16 | 759 | – | –
11 | N#CCC1(n2cc(C(N)=O)c(Nc3ccnc(F)c3)n2)CCC(NCc2ccccc2C#N)CC1 (stereo not drawn) [Example 41-27, Cis or trans 1-{4-[(2-cyanobenzyl)amino]-1-(cyanomethyl)cyclohexyl}-3-[(2-fluoropyridin-4-yl)amino]-1H-pyrazole-4-carboxamide] | 307 | > 1500 | – | –
12 | N#CCC1(n2cc(C(N)=O)c(Nc3ccnc(F)c3)n2)CCC(NCc2ccccc2)CC1 (stereo not drawn) [Example 41-28, Cis or trans 1-[4-(benzylamino)-1-(cyanomethyl)cyclohexyl]-3-[(2-fluoropyridin-4-yl)amino]-1H-pyrazole-4-carboxamide] | 20 | 735 | – | –
13 | N#CC[C@]1(n2cc(C(N)=O)c(Nc3ccccc3)n2)CC[C@H](C(=O)NCC(F)(F)F)CC1 [Example 45-2, cis or trans 1-{1-(cyanomethyl)-4-[(2,2,2-trifluoroethyl)carbamoyl]cyclohexyl}-3-(phenylamino)-1H-pyrazole-4-carboxamide] | – | – | 378 | 1480

More lines, main results first:

Row | IC50 (JAK1; [1]) [nM] | IC50 (JAK2; [1]) [nM] | SMILES | IC50 (JAK1) [nM] | IC50 (JAK2) [nM]
14 | 12 | 468 | N#CCC1(n2cc(C(N)=O)c(Nc3ccnc(F)c3)n2)CCC(NCc2ccccc2O)CC1 (stereo not drawn) [Example 41-7, Cis or trans 1-{1-(cyanomethyl)-4-[(2-hydroxybenzyl)amino]cyclohexyl}-3-[(2-fluoropyridin-4-yl)amino]-1H-pyrazole-4-carboxamide] | – | –
15 | 0.8 | 153 | N#CCC1(n2cc(C(N)=O)c(Nc3ccnc(F)c3)n2)CCC(NCC2CCCCC2)CC1 (stereo not drawn) [Example 41-8, Trans 1-{1-(cyanomethyl)-4-[(cyclohexylmethyl)amino]cyclohexyl}-3-[(2-fluoropyridin-4-yl)amino]-1H-pyrazole-4-carboxamide] | – | –
16 | 15 | 440 | N#CCC1(n2cc(C(N)=O)c(Nc3ccnc(F)c3)n2)CCC(NCc2ccc(Cl)cc2)CC1 (stereo not drawn) [Example 41-9, Cis or trans 1-{4-[(4-chlorobenzyl)amino]-1-(cyanomethyl)cyclohexyl}-3-[(2-fluoropyridin-4-yl)amino]-1H-pyrazole-4-carboxamide] | – | –
17 | 0.03 | 2 | N#CCC1(n2cc(C(N)=O)c(Nc3ccnc(F)c3)n2)CCC(NCc2ccccc2Cl)CC1 (stereo not drawn) [Example 41-10, Cis or trans 1-{4-[(2-chlorobenzyl)amino]-1-(cyanomethyl)cyclohexyl}-3-[(2-fluoropyridin-4-yl)amino]-1H-pyrazole-4-carboxamide] | – | –
18 | 0.08 | 2 | N#CCC1(n2cc(C(N)=O)c(Nc3ccnc(F)c3)n2)CCC(NCc2ccccc2F)CC1 (stereo not drawn) [Example 41-11, Cis or trans 1-{1-(cyanomethyl)-4-[(2-fluorobenzyl)amino]cyclohexyl}-3-[(2-fluoropyridin-4-yl)amino]-1H-pyrazole-4-carboxamide] | – | –
19 | 0.2 | 9 | N#CCC1(n2cc(C(N)=O)c(Nc3ccnc(F)c3)n2)CCC(NCc2ccc(F)cc2)CC1 (stereo not drawn) [Example 41-12, Cis or trans 1-{1-(cyanomethyl)-4-[(4-fluorobenzyl)amino]cyclohexyl}-3-[(2-fluoropyridin-4-yl)amino]-1H-pyrazole-4-carboxamide] | – | –
20 | 0.1 | 2 | N#CCC1(n2cc(C(N)=O)c(Nc3ccnc(F)c3)n2)CCC(NCc2ccc(Cl)cc2)CC1 (stereo not drawn) [Example 41-15, Cis or trans 1-{4-[(4-chlorobenzyl)amino]-1-(cyanomethyl)cyclohexyl}-3-[(2-fluoropyridin-4-yl)amino]-1H-pyrazole-4-carboxamide] | – | –
21 | 0.1 | 10 | N#CCC1(n2cc(C(N)=O)c(Nc3ccnc(F)c3)n2)CCC(NCc2ccccc2)CC1 (stereo not drawn) [Example 41-18, Cis or trans 1-[4-(benzylamino)-1-(cyanomethyl)cyclohexyl]-3-[(2-fluoropyridin-4-yl)amino]-1H-pyrazole-4-carboxamide] | – | –
22 | 0.3 | 9 | N#CCC1(n2cc(C(N)=O)c(Nc3ccnc(F)c3)n2)CCC(NCc2cccc(F)c2)CC1 (stereo not drawn) [Example 41-19, Cis or trans 1-{1-(cyanomethyl)-4-[(3-fluorobenzyl)amino]cyclohexyl}-3-[(2-fluoropyridin-4-yl)amino]-1H-pyrazole-4-carboxamide] | – | –
23 | 0.6 | 17 | N#CCC1(n2cc(C(N)=O)c(Nc3ccnc(F)c3)n2)CCC(NCc2cccc(Cl)c2)CC1 (stereo not drawn) [Example 41-20, Cis or trans 1-{4-[(3-chlorobenzyl)amino]-1-(cyanomethyl)cyclohexyl}-3-[(2-fluoropyridin-4-yl)amino]-1H-pyrazole-4-carboxamide] | – | –
24 | 11 | 308 | N#CCC1(n2cc(C(N)=O)c(Nc3ccnc(F)c3)n2)CCC(NCc2ccccc2F)CC1 (stereo not drawn) [Example 41-21, Cis or trans 1-{1-(cyanomethyl)-4-[(2-fluorobenzyl)amino]cyclohexyl}-3-[(2-fluoropyridin-4-yl)amino]-1H-pyrazole-4-carboxamide] | – | –
25 | 0.03 | 0.1 | N#CC[C@@]1(n2cc(C(N)=O)c(Nc3ccnc(F)c3)n2)CCN(C(=O)OCC(F)F)C[C@@H]1F [Example 46] | – | –
